The record followed here is the supplement of paper PMC10307832.

What all share (assay): relative viability (nuclei count vs DMSO), 5 days (fraction); higher = more cells survive
Compound in experiment [1]: CC(C)C[C@H](NC(=O)[C@H](Cc1ccccc1)NC(=O)c1cnccn1)B(O)O [Bortezomib] + Nc1ncn([C@H]2C[C@H](O)[C@@H](CO)O2)c(=O)n1 [Decitabine] (partner 2 µM)
The procedure, abridged:
(§1)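 After 5 days of treatment, lung cancer cells in 1536-well plates were fixed and stained in a single step (final 0.05% Triton X-100, 1% formaldehyde, 1 ug/ml Hoechst) and their nuclei counted on 4× images. Treatment had been applied by pin tool the day after seeding as one drug alone or as a fixed anchor-drug dose with five library-drug doses (not always all listed) in √10 steps. Relative viability is the nuclei count of treated wells divided by that of vehicle wells, and values are medians of duplicate plates.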

Compound in experiment [2]: CC(C)C[C@H](NC(=O)[C@H](Cc1ccccc1)NC(=O)c1cnccn1)B(O)O [Bortezomib] + NC(=O)Nc1cc(-c2cccc(F)c2)sc1C(=O)N[C@H]1CCCNC1 [AZD7762] (partner 0.2 µM)
In short, it runs like this:
as §1

Compound in experiment [3]: CC(C)C[C@H](NC(=O)[C@H](Cc1ccccc1)NC(=O)c1cnccn1)B(O)O [Bortezomib] + COc1cccc2cc(-c3nc([C@H]4CC[C@H](C(=O)O)CC4)n4ncnc(N)c34)[nH]c12 [OSI-027] (partner 0.5 µM)
In short, it runs like this: as §1

Compound in experiment [4]: CC(C)C[C@H](NC(=O)[C@H](Cc1ccccc1)NC(=O)c1cnccn1)B(O)O [Bortezomib] + O=C(CCCCCCC(=O)Nc1ccccc1)NO [Vorinostat] (partner 1 µM)
The procedure, abridged: as §1

Consider NCI-H650, for which the relative viability in experiment [1] (first compound 0.0002 µM) is 0.332; in experiment [1] (first compound 0.000632 µM), 0.347; in experiment [1] (first compound 0.002 µM), 0.286; in experiment [1] (first compound 0.006325 µM), 0.216; in experiment [1] (first compound 0.02 µM) it was 0.147; in experiment [2] (first compound 0.0002 µM), 0.949. Besides, the relative viability in experiment [2] (first compound 0.000632 µM) is 1.08; in experiment [2] (first compound 0.002 µM), 0.95; in experiment [2] (first compound 0.006325 µM) it was 0.942; in experiment [2] (first compound 0.02 µM), 0.289; in experiment [3] (first compound 0.000632 µM), 0.522; in experiment [3] (first compound 0.002 µM), 0.536. Further, the relative viability in experiment [3] (first compound 0.006325 µM) stood at 0.595; in experiment [3] (first compound 0.02 µM), 0.207; in experiment [4] (first compound 0.0002 µM) it was 0.395; in experiment [4] (first compound 0.000632 µM), 0.566; in experiment [4] (first compound 0.002 µM), 0.452; in experiment [4] (first compound 0.006325 µM), 0.429. Further, the relative viability in experiment [4] (first compound 0.02 µM) worked out at 0.121.
